Source: patent US20210353631A1, “1,4-Benzoxazines for the Treatment of Cancers and Other Neurodegenerative Diseases” (Neugeneron LLC, priority 2020, published 2021)
Where two headings read alike, the source gives them in different places.

Experiments:
CSNK1E = target: T1, CSNK1E (Homo sapiens, UniProt P49674); assay: KINOMEscan kinome profiling (DiscoveRx/Eurofin platform); type: binding; details: read-out: % control
T1 construct: purchased DiscoveRx/Eurofin

DRAK2 (STK17B) = target: T2, DRAK2 (STK17B) (Homo sapiens, UniProt O94768); assay: as above; type: binding
T2 construct: purchased DiscoveRx/Eurofin
T2 sequence (O94768 whole entry): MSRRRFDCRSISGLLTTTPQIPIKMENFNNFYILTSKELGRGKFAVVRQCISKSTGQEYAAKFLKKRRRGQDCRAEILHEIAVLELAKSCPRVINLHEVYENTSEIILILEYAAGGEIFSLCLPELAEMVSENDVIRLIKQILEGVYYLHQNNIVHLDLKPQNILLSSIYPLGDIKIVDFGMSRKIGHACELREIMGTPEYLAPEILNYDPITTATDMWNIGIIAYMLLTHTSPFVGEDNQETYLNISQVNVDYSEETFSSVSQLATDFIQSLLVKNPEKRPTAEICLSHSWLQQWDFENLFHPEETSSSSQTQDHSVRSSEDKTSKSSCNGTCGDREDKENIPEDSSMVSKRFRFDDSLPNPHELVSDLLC

EGFR(G719S) = target: T3, EGFR(G719S) (Homo sapiens, UniProt P00533, G719S); assay: as above; type: binding; details: read-out: % control
T3 construct: purchased DiscoveRx/Eurofin
T3 sequence (P00533 25-1210 G719S): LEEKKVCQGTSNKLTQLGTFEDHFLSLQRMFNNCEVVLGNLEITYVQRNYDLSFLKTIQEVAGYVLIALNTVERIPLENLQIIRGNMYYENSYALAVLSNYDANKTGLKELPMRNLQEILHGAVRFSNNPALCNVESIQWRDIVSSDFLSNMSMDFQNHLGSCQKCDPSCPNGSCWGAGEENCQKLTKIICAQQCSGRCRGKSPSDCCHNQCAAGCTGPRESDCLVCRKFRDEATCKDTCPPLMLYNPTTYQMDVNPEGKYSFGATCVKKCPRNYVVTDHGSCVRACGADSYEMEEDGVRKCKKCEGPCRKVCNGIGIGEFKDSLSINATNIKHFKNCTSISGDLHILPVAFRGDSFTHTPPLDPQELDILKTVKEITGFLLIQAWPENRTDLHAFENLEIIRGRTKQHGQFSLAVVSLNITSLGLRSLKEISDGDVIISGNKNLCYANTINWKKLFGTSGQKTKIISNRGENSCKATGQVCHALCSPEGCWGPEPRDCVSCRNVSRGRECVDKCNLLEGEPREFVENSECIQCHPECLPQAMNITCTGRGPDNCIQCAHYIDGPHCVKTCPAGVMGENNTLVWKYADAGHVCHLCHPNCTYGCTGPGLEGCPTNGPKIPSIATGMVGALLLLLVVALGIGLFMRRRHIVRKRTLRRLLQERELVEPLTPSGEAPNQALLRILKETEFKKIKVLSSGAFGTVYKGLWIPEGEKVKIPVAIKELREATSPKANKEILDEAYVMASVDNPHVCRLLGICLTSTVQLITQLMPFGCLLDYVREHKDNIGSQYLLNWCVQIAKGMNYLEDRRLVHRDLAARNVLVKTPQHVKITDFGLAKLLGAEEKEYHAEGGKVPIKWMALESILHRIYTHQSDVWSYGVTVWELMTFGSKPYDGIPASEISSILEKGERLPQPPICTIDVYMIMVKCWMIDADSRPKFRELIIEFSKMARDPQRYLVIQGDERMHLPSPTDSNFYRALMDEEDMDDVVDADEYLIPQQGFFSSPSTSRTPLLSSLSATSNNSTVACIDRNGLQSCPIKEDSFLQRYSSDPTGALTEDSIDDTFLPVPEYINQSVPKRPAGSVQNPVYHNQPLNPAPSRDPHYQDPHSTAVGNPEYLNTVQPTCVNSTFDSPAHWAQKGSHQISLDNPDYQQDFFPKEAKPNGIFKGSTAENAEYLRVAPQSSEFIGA

DCAMKL1 (DCLK1) = target: T4, DCAMKL1 (DCLK1) (Homo sapiens, UniProt O15075); assay: as above; type: binding; details: KINOMEscan DCAMKL1 (Entrez DCLK1), read-out: % control
T4 construct: purchased DiscoveRx/Eurofin

DAPK1 = target: T5, DAPK1 (Homo sapiens, UniProt P53355); assay: as above; type: binding; details: read-out: % control
T5 construct: purchased DiscoveRx/Eurofin

CSNK1D = target: T6, CSNK1D (Homo sapiens, UniProt P48730); assay: as above; type: binding; details: read-out: % control
T6 construct: purchased DiscoveRx/Eurofin

[1] = tested on: cerebellar granule neurons (CGNs); assay: Neuroprotection in cerebellar granule neurons switched from HK to LK medium; type: cell-based; details: 1, 5 and 25 uM, viability 24 h later, single experiment in duplicate
Experimental: (§1) FIGS. 1A to 1C, show: (FIG. 1A) Chemical structure of NGN-006. (FIG. 1B) Neuroprotection in cerebellar granule neurons (CGNs) induced to die by switching from high potassium (HK) to low potassium (LK) medium. HSB-13 and NGN-006 were added to LK-treated CGNs at 1, 5 and 25 uM concentrations. Viability was measured 24 h later and compared with control survival in HK). Results are means values from a single experiment performed in duplicate. […] (FIG. 1C) Neuroprotection in cortical neurons (CGNs) induced to die by treatment with homocysteic acid (HCA) which induces oxidative stress. Neurons were treated either with HCA alone or HCA with 25 uM HSB-13 or 5 uM and 25 uM NGN-006 for 18 h. Viability was measured 24 h later and compared with survival of control (untreated cells, Unt). Results are mean values from a single experiment performed in duplicate.
(§2) Based on the structure of HSB-13 addition compounds have been synthesized. Among these derivatives was NGN-006 (FIG. 1A). […] Viability was measured 24 h later and compared with control survival in HK). […] Viability was measured 24 h later and compared with survival of control (untreated cells, Unt). […]

451 kinases = assay: Kinome profiling, count of kinases inhibited in the whole panel; type: binding; details: substantially defined as over 36% inhibition at 1 uM
[2] = target: T7, EGFR(L747-E749del, A750P) (Homo sapiens, UniProt P00533, A750P/DEL747-749); assay: KINOMEscan kinome profiling (DiscoveRx/Eurofin platform); type: binding; details: read-out: % control
T7 construct: purchased DiscoveRx/Eurofin

CLK2 = target: T8, CLK2 (Homo sapiens, UniProt P49760); assay: as above; type: binding; details: read-out: % control
T8 construct: purchased DiscoveRx/Eurofin

CSNK1G3 = target: T9, CSNK1G3 (Homo sapiens, UniProt Q9Y6M4); assay: as above; type: binding; details: read-out: % control
T9 construct: purchased DiscoveRx/Eurofin

DRAK1/STK17a = target: T10, DRAK1/STK17a (Homo sapiens, UniProt Q9UEE5); assay: as above; type: binding; details: KINOMEscan DRAK1 (Entrez STK17A), read-out: % control
T10 construct: purchased DiscoveRx/Eurofin

CSNK1A1L = target: T11, CSNK1A1L (Homo sapiens, UniProt Q8N752); assay: as above; type: binding; details: read-out: % control
T11 construct: purchased DiscoveRx/Eurofin
T11 sequence (Q8N752 whole entry): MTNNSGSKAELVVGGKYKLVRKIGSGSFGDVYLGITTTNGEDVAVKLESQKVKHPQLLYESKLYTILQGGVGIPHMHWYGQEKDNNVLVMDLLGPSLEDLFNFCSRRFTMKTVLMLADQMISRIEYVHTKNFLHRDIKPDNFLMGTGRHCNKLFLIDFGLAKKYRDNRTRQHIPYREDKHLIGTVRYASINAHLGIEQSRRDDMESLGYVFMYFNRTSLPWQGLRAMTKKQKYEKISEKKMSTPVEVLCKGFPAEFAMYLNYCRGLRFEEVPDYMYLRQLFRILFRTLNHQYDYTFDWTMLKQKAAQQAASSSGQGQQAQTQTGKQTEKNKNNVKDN

EGFR(L747-T751del,Sins) = assay: as above; type: binding; details: 1 uM
CIT = target: T12, CIT (Homo sapiens, UniProt O14578); assay: as above; type: binding; details: read-out: % control
T12 construct: purchased DiscoveRx/Eurofin

DYRK1B = target: T13, DYRK1B (Homo sapiens, UniProt Q9Y463); assay: as above; type: binding; details: read-out: % control
T13 construct: purchased DiscoveRx/Eurofin

EGFR(G719C) = target: T14, EGFR(G719C) (Homo sapiens, UniProt P00533, G719C); assay: as above; type: binding; details: read-out: % control
T14 construct: purchased DiscoveRx/Eurofin

CSNK1A1 = target: T15, CSNK1A1 (Homo sapiens, UniProt P48729); assay: as above; type: binding; details: read-out: % control
T15 construct: purchased DiscoveRx/Eurofin

[3] = target: other members of the DAPK family; assay: Kinome profiling of NGN-006; type: binding
DCAMKL2 (DCLK2) = target: T16, DCAMKL2 (DCLK2) (Homo sapiens, UniProt Q8N568); assay: KINOMEscan kinome profiling (DiscoveRx/Eurofin platform); type: binding; details: KINOMEscan DCAMKL2 (Entrez DCLK2), read-out: % control
T16 construct: purchased DiscoveRx/Eurofin

CSK = target: T17, CSK (Homo sapiens, UniProt P41240); assay: as above; type: binding; details: read-out: % control
T17 construct: purchased DiscoveRx/Eurofin

p38 MAPK [4] = assay: Kinome profiling of NGN-006; type: binding; details: kinase that HSB-13 inhibits
CLK3 = target: T18, CLK3 (Homo sapiens, UniProt P49761); assay: KINOMEscan kinome profiling (DiscoveRx/Eurofin platform); type: binding; details: read-out: % control
T18 construct: purchased DiscoveRx/Eurofin

CSNK2A2 = target: T19, CSNK2A2 (Homo sapiens, UniProt P19784); assay: as above; type: binding; details: read-out: % control
T19 construct: purchased DiscoveRx/Eurofin

GSK3β [5] = target: T20, GSK3β (Homo sapiens, UniProt P49841); assay: Kinome profiling of NGN-006; type: binding; details: kinase that HSB-13 inhibits
T20 sequence (P49841 whole entry): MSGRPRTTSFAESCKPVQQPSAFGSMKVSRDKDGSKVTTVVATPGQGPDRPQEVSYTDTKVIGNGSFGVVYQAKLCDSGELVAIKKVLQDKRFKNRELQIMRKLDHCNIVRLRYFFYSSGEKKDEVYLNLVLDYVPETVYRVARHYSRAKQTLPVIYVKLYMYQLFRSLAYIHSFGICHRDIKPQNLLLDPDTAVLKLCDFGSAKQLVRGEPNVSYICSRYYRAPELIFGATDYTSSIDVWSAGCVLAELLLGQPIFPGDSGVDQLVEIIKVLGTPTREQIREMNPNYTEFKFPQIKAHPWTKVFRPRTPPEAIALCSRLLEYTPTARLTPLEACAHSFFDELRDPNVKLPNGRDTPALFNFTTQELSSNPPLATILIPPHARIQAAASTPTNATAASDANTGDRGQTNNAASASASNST

EGFR(E746-A750del) = target: T21, EGFR(E746-A750del) (Homo sapiens, UniProt P00533, DEL746-750); assay: KINOMEscan kinome profiling (DiscoveRx/Eurofin platform); type: binding; details: read-out: % control
T21 construct: purchased DiscoveRx/Eurofin

CSF1R = target: T22, CSF1R (Homo sapiens, UniProt P07333); assay: as above; type: binding; details: read-out: % control
T22 construct: purchased DiscoveRx/Eurofin

DAPK2 = target: T23, DAPK2 (Homo sapiens, UniProt Q9UIK4); assay: as above; type: binding; details: read-out: % control
T23 construct: purchased DiscoveRx/Eurofin

CTK (MATK) = target: T24, CTK (MATK) (Homo sapiens, UniProt P42679); assay: as above; type: binding; details: KINOMEscan CTK (Entrez MATK), read-out: % control
T24 construct: purchased DiscoveRx/Eurofin
T24 sequence (P42679 whole entry): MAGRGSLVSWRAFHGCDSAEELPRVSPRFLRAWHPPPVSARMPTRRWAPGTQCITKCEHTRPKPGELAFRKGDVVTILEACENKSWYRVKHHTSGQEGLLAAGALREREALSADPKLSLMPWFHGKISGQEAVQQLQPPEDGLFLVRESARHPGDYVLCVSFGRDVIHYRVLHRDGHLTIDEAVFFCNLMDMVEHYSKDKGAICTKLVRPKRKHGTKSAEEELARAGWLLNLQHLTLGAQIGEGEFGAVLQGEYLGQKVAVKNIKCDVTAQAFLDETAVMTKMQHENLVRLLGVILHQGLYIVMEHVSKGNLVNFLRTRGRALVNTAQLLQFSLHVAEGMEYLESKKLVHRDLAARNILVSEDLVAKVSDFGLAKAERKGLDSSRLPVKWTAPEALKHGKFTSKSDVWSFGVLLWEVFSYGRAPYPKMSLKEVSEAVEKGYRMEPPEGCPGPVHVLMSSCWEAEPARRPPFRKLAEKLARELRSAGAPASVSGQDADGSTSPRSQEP

DLK (MAP3K12) = target: T25, DLK (MAP3K12) (Homo sapiens, UniProt Q12852); assay: as above; type: binding; details: KINOMEscan DLK (Entrez MAP3K12), read-out: % control
T25 construct: purchased DiscoveRx/Eurofin

CSNK1G2 = target: T26, CSNK1G2 (Homo sapiens, UniProt P78368); assay: as above; type: binding; details: read-out: % control
T26 construct: purchased DiscoveRx/Eurofin

CSNK2A1 = target: T27, CSNK2A1 (Homo sapiens, UniProt P68400); assay: as above; type: binding; details: read-out: % control
T27 construct: purchased DiscoveRx/Eurofin
T27 sequence (P68400 whole entry): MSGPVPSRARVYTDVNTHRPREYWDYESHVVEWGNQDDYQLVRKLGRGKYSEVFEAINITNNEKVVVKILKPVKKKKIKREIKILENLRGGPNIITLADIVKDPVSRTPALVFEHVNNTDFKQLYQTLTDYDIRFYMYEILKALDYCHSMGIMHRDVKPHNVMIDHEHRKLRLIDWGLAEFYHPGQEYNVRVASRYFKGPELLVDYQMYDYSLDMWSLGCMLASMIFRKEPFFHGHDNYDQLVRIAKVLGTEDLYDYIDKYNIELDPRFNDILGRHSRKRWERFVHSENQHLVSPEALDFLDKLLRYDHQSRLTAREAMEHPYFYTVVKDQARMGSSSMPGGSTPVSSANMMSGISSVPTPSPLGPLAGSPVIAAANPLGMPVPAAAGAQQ

DMPK2 (CDC42BPG) = target: T28, DMPK2 (CDC42BPG) (Homo sapiens, UniProt Q6DT37); assay: as above; type: binding; details: KINOMEscan DMPK2 (Entrez CDC42BPG), read-out: % control
T28 construct: purchased DiscoveRx/Eurofin

DYRK1A = target: T29, DYRK1A (Homo sapiens, UniProt Q13627); assay: as above; type: binding; details: read-out: % control
T29 construct: purchased DiscoveRx/Eurofin

DYRK2 = target: T30, DYRK2 (Homo sapiens, UniProt Q92630); assay: as above; type: binding; details: read-out: % control
T30 construct: purchased DiscoveRx/Eurofin

CDKs = assay: Kinome profiling of NGN-006; type: binding; details: kinases that HSB-13 inhibits
DAPK3 = target: T31, DAPK3 (Homo sapiens, UniProt O43293); assay: KINOMEscan kinome profiling (DiscoveRx/Eurofin platform); type: binding; details: read-out: % control
T31 construct: purchased DiscoveRx/Eurofin

DMPK = target: T32, DMPK (Homo sapiens, UniProt Q09013); assay: as above; type: binding; details: read-out: % control
T32 construct: purchased DiscoveRx/Eurofin

cortical neurons = assay: Neuroprotection in cortical neurons treated with homocysteic acid (HCA); type: cell-based; details: cortical neurons treated with HCA (oxidative stress); 5 uM and 25 uM for 18 h; single experiment in duplicate
Experimental: as §1, §2

EGFR = target: T33, EGFR (Homo sapiens, UniProt P00533); assay: KINOMEscan kinome profiling (DiscoveRx/Eurofin platform); type: binding; details: read-out: % control
T33 construct: purchased DiscoveRx/Eurofin
T33 sequence (P00533 25-1210): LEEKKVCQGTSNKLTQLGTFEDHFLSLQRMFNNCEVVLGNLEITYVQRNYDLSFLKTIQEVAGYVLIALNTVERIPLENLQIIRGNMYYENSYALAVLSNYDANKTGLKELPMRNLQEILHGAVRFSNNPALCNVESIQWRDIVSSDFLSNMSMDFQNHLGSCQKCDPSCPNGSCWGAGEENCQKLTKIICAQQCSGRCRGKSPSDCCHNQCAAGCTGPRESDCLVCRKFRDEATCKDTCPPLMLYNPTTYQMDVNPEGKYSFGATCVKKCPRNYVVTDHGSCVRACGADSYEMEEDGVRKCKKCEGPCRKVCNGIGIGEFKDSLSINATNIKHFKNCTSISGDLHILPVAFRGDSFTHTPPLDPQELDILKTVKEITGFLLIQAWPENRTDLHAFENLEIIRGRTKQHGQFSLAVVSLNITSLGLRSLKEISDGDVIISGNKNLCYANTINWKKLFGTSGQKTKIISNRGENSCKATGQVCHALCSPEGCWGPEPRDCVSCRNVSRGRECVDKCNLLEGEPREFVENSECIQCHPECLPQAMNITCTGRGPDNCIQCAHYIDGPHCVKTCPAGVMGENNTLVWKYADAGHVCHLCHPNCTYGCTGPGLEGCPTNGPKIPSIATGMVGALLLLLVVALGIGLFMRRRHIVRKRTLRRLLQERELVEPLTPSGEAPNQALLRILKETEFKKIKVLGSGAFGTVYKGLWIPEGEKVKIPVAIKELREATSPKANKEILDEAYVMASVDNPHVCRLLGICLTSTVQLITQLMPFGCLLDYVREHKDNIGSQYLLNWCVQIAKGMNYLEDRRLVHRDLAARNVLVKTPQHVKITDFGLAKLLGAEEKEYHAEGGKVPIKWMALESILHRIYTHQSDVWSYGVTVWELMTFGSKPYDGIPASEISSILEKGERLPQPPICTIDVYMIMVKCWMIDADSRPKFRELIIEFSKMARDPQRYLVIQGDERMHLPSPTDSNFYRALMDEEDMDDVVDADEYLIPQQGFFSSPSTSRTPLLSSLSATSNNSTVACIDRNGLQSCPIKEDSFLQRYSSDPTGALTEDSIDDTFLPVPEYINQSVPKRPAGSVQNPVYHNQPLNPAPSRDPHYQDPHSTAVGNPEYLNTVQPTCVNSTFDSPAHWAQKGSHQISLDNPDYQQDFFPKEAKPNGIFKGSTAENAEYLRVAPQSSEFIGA

CSNK1G1 = target: T34, CSNK1G1 (Homo sapiens, UniProt Q9HCP0); assay: as above; type: binding; details: read-out: % control
T34 construct: purchased DiscoveRx/Eurofin

DCAMKL3 (DCLK3) = target: T35, DCAMKL3 (DCLK3) (Homo sapiens, UniProt Q9C098); assay: as above; type: binding; details: KINOMEscan DCAMKL3 (Entrez DCLK3), read-out: % control
T35 construct: purchased DiscoveRx/Eurofin

CLK1 = target: T36, CLK1 (Homo sapiens, UniProt P49759); assay: as above; type: binding; details: read-out: % control
T36 construct: purchased DiscoveRx/Eurofin
T36 sequence (P49759 whole entry): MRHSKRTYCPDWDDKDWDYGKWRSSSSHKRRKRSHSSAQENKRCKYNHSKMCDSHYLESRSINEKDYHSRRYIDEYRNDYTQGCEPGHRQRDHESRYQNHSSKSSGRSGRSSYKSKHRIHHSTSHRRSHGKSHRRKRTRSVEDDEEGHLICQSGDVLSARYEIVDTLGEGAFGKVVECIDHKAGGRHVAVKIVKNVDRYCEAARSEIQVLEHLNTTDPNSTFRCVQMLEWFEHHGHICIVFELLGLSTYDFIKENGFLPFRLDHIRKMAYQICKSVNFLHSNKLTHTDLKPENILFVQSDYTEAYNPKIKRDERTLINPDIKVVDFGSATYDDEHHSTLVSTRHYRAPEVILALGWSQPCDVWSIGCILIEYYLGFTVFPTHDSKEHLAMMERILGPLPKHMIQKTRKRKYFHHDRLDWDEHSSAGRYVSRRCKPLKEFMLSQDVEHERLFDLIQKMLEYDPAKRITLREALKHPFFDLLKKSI

DDR2 = target: T37, DDR2 (Homo sapiens, UniProt Q16832); assay: as above; type: binding; details: read-out: % control
T37 construct: purchased DiscoveRx/Eurofin

CSF1R -autoinhibited = target: T38, CSF1R -autoinhibited (Homo sapiens, UniProt P07333); assay: as above; type: binding; details: read-out: % control
T38 construct: purchased DiscoveRx/Eurofin

[6] = target: T39, EGFR(L747-S752del, P753S) (Homo sapiens, UniProt P00533, DEL747-752/P753S); assay: as above; type: binding; details: read-out: % control
T39 construct: purchased DiscoveRx/Eurofin

CLK4 = target: T40, CLK4 (Homo sapiens, UniProt Q9HAZ1); assay: as above; type: binding; details: read-out: % control
T40 construct: purchased DiscoveRx/Eurofin

DDR1 = target: T41, DDR1 (Homo sapiens, UniProt Q08345); assay: as above; type: binding; details: read-out: % control
T41 construct: purchased DiscoveRx/Eurofin

panel of 20 kinases = details: 500 nM; previous analyses; cited from earlier work
fly model of AD = details: widely-used fly model of AD; cited from earlier work
GSK3β [7] = target: T20, GSK3β; details: kinome profiling studies; cited from earlier work
mouse model of HD = details: cited from earlier work
[8] = tested on: cell culture models of neurodegeneration; details: cited from earlier work
p38 MAPK [9] = details: kinome profiling studies; cited from earlier work
[10] = target: cyclin-dependent kinases (CDKs); details: kinome profiling studies; cited from earlier work

Nc1ccc2c(c1)NC(=O)/C(=C/c1ccc(Cl)cc1)O2 [NGN-006, (2Z)-6-amino-2-[(4-chlorophenyl)methylidene]-3,4-dihydro-2H-1,4-benzoxazin-3-one]
remaining binding at 1 µM (CSNK1E): 89%
remaining binding at 1 µM (DRAK2 (STK17B); KINOMEscan DRAK2 (Entrez STK17B), 1 uM, read-out: % control): 83%
kinase inhibition (in words) (DRAK2 (STK17B); closely-related DRAK2 protein): not inhibited
remaining binding at 1 µM (EGFR(G719S)): 98%
remaining binding at 1 µM (DCAMKL1 (DCLK1)): 100%
remaining binding at 1 µM (DAPK1): 100%
remaining binding at 1 µM (CSNK1D): 100%
neuroprotection (viability) [1]: protective
kinases inhibited substantially of the 451 kinases tested (451 kinases): only DRAK1/STK17a
remaining binding at 1 µM [2]: 92%
remaining binding at 1 µM (CLK2): 100%
remaining binding at 1 µM (CSNK1G3): 84%
remaining binding at 1 µM (DRAK1/STK17a): 26%
remaining binding at 1 µM (CSNK1A1L): 100%
% control (EGFR(L747-T751del,Sins)): 100%
remaining binding at 1 µM (CIT): 100%
remaining binding at 1 µM (DYRK1B): 100%
remaining binding at 1 µM (EGFR(G719C)): 100%
remaining binding at 1 µM (CSNK1A1): 100%
kinase inhibition (in words) [3]: not inhibited
remaining binding at 1 µM (DCAMKL2 (DCLK2)): 98%
remaining binding at 1 µM (CSK): 97%
kinase inhibition (in words) (p38 MAPK [4]): does not inhibit
remaining binding at 1 µM (CLK3): 92%
remaining binding at 1 µM (CSNK2A2): 100%
kinase inhibition (in words) (GSK3β [5]): does not inhibit
remaining binding at 1 µM (EGFR(E746-A750del)): 100%
remaining binding at 1 µM (CSF1R): 100%
remaining binding at 1 µM (DAPK2): 86%
remaining binding at 1 µM (CTK (MATK)): 100%
remaining binding at 1 µM (DLK (MAP3K12)): 100%
remaining binding at 1 µM (CSNK1G2): 100%
remaining binding at 1 µM (CSNK2A1): 100%
remaining binding at 1 µM (DMPK2 (CDC42BPG)): 96%
remaining binding at 1 µM (DYRK1A): 100%
remaining binding at 1 µM (DYRK2): 100%
kinase inhibition (in words) (CDKs): does not inhibit
remaining binding at 1 µM (DAPK3): 88%
remaining binding at 1 µM (DMPK): 100%
neuroprotection (viability) (cortical neurons): protective
remaining binding at 1 µM (EGFR): 87%
remaining binding at 1 µM (CSNK1G1): 100%
remaining binding at 1 µM (DCAMKL3 (DCLK3)): 100%
remaining binding at 1 µM (CLK1): 79%
remaining binding at 1 µM (DDR2): 100%
remaining binding at 1 µM (CSF1R -autoinhibited): 100%
remaining binding at 1 µM [6]: 100%
remaining binding at 1 µM (CLK4): 100%
remaining binding at 1 µM (DDR1): 100%

Nc1ccc2c(c1)NC(=O)/C(=C/c1cc(Br)c(O)c(Br)c1)O2 [HSB-13]
kinases inhibited out of a panel of 20 kinases (panel of 20 kinases): 3
protection (fly model of AD): protective
kinase inhibition (in words) (GSK3β [7]): most inhibited
behavioral performance (mouse model of HD): improved behavioral performance
neurodegeneration (mouse model of HD): prevented neurodegeneration
protection against neuronal loss [8]: protective
kinase inhibition (in words) (p38 MAPK [9]): most inhibited
kinase inhibition (in words) [10]: most inhibited
